This is an account of results in patent US6608106B2 (Sloan-Kettering Institute for Cancer Research, priority 1997, dated 2003).

Like-named read-outs stand apart in the source and are kept apart here. A value given as a limit tells only on which side of the number the result lay.

For data set [1], the target named is T1, GLUT1 (Mus musculus, UniProt P17809).
T1 sequence (P17809 1-492): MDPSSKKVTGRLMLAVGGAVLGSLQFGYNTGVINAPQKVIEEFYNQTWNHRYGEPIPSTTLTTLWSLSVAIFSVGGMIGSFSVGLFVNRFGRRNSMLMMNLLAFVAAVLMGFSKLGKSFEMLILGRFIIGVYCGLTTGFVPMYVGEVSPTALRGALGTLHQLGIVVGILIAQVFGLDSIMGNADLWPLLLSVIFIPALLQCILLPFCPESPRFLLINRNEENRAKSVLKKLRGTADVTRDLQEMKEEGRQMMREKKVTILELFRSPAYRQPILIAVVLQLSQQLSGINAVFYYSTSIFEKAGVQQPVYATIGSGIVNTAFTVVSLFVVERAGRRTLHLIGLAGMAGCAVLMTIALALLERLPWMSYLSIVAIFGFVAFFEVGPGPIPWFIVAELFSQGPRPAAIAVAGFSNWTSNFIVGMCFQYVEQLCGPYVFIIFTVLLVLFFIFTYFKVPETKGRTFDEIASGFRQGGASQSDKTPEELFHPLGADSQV
To be noted: dose-dependent, 30-second time course, mice.

The conditions of data set [2]: rat.
The conditions of data set [3]: cited from earlier work.
The conditions of data set [4]: mouse, in vivo; for serum radioactivity concentration: 15 seconds.
The nature of data set [5]: Tracer studies of brain accumulation in focal cerebral ischemia. The class given is in vivo, C57/6J BL mice. To be noted: ischemic animals, 10 minutes or two hours of focal ischemia. The protocol:
(§1) Dithiothreitol (0.1 mmol/L) was then added separately to both DHA and ascorbate prior to use as a reducing agent. For experiments examining the effect of focal cerebal ischemia on the DHA's ability to: (1) cross the blood-brain barrier and, (2) protect cerebral tissue, we employed an intraluminal murine model of reversible (45 minutes) or permanent (24 h) right middle cerebral artery occlusion. (12) Anesthetized normothermic C57/6J BL mice were treated prior to ischemia via penile injection with either high dose DHA (250 mg/kg), low dose DHA (40 mg/kg), ascorbate (250 mg/kg), or sucrose (a non-metabolized, non-transportable marker of plasma volume). All animals underwent transcranial laser doppler measurement of cortical cerebral blood flow perioperatively. […] (11) In contrast, the experimental cohorts were followed for 24 hours and underwent pre-sacrifice neurological examination, as previously described. 13 Infarct volumes were calculated by digital analysis of serial, 2,3,5-triphenyltetrazolium-stained, sections, with volumes expressed as percentage of the ipsilateral hemisphere.^12 There were 67 animals in the reperfusion cohort (including vehicle, 40 mg/kg DHA, 250 mg/kg DHA, and 250 mg/kg ascorbate cohorts) and 54 animals in the nonreperfused cohort (including vehicle, 250 mg/kg DHA, and 250 mg/kg ascorbate cohorts). Comparisons were made between groups with a two-tailed Student t-test for unpaired variable. All studies were performed in accordance with an institutionally approved animal protocol.

The subject of data set [6] is murine stroke (right middle cerebral artery occlusion). Description: Non-reperfused stroke: permanent (24 h) right middle cerebral artery occlusion. To be noted: 250 mg/kg. Type of data set: in vivo, C57/6J BL mice. The protocol: as §1
Since clinical therapeutic antioxidant strategies might be employed prior to hospitalization and reperfusion, we examined the effect of high-dose DHA on non-reperfused stroke as well. […] This improved perfusion was associated with similar reductions in infarct volume (51±6% vehicle, 46±6% AA, and 26±5% high-DHA, p<0.01 vs. vehicle), and sacrifice neurological deficit scores (3.0±0.3% vehicle, 3.2±0.4% AA, and 1.9±0.2% high-DHA; p<0.005 for DHA vs. either control). As in the setting of reperfusion, DHA reduced mortality by nearly 50% (50% vehicle, 64% AA, and 30% high-DHA.

Data set [7] in a line: Carotid artery infusion of dehydroascorbic acid: loading of vitamin C into the brain. Type of data set: in vivo. Particulars: 24 mg into carotid artery over forty minutes, rat. The protocol:
An experiment was done in which the carotid artery of a subject rat was cannulated with a catheter and 24 mg of dehydroascorbic acid was injected into the artery. The injected dehydroascorbic acid was spiked with a tracer amount of radioactive (^14C-labeled) dehydroascorbic acid. The dehydroascorbic acid was infused over forty minutes and the brain was harvested. The amount of radioactive vitamin C was quantitated in the brain and total amount of injected vitamin C that accumulated in the brain was thus extrapolated. […] It is of note that the total vitamin C concentration in the normal adult rat brain is approximately 150 μg. A log-fold greater Vitamin C than baseline normal concentration of Vitamin C was thus achieved.

For data set [8] the following is noted: previous studies (11); cited from earlier work.
For data set [9] the following is noted: in vivo.
A further data set deals with HL60 cells. To be noted: read-out: apparent Km for transport; cited from earlier work.
Data set [10] concerns murine stroke (right middle cerebral artery occlusion). Description: Reperfused stroke: reversible (45 minutes) right middle cerebral artery occlusion. The class given is in vivo, C57/6J BL mice. Particulars: for cerebral infarct volume (percentage of the ipsilateral hemisphere): 24 hours. The protocol:
as §1

Data set [11] deals with T2, GLUT1 (Homo sapiens, UniProt P11166).
T2 sequence (P11166 1-492): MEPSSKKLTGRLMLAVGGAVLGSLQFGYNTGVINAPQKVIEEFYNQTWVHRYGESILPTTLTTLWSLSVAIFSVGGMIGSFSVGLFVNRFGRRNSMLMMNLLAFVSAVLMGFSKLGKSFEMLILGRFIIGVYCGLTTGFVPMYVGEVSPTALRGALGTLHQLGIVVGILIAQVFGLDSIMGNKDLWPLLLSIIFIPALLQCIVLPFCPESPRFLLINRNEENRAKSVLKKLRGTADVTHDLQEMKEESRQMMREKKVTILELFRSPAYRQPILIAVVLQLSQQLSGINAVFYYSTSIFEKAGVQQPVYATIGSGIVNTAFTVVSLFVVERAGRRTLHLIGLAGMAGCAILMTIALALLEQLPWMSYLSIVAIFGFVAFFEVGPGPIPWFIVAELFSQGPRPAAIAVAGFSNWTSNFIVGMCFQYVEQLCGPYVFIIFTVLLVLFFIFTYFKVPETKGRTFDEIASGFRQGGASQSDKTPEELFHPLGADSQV
To be noted: in vitro data; cited from earlier work.

For data set [12] the following is noted: 60 mg daily, human volunteers; cited from earlier work.
[13] abbreviates: low dose 40 mg/kg pre-treatment.

The mortality is the percentage killed. A low value points to more survivors. The Km is the concentration of substrate that gives half-maximal velocity.

With `O=C[C@@H](O)[C@H](O)[C@@H](O)[C@@H](O)CO` [L-glucose], the “inhibition of uptake of dehydroascorbic acid in the brain” value against GLUT1 [1] is listed as “no effect”.
Take `O=C1O[C@H]([C@@H](O)CO)C(=O)C1=O` [dehydroascorbic acid]: in data set [2], the “calculated BBB permeability-surface area product (PS)” value is on record as 136±12 μl/min/gm brain tissue. Besides, in data set [3] (aqueous solution), the stability result is given as “hydrolyses easily”. Also, in data set [3] (low pH conditions), the stability result is given as “stable”. In data set [4] (Balb/c, iv), the “brain radioactivity, maximum” value is reported as 4.3 % of ID/gram brain tissue and the serum radioactivity concentration was found to be 8 % ID/gram serum. The brain radioactivity in data set [4] (Balb/c, iv, 25 min) is listed as 3.3%. Also, the “accumulation, percent of injected dose (TD) per gram of brain tissue” value in [5] is approximately 4%. Moreover, in [6], the infarct volume was found to be 26±5%, the mortality stood at 30% and the “pre-sacrifice regional cerebral cortical perfusion” value is given as 30±3%. Also, the reduction of mortality in data set [6] (vs. controls) was approximately 50%. Further, in [7], the “amount of vitamin C accumulated in the brain” value is 2.6 mg and the “vitamin C accumulated in the brain as share of injected dose” value was “approximately 11%”. In data set [8], the “form of vitamin C accumulating in the brains of DHA-injected animals that is ascorbic acid” value is more than 85%. In addition, in [9] (Balb/c (mouse), Fischer F344 (rat), mouse and rat, 3 min), the “radioactivity found in the brain, percent of injected dose (ID) per gram of brain tissue” value is on record as “Approximately 4%”. Also, the Km in the data set with HL60 cells is 850 µM. For the same molecule, in data set [10] (250 mg/kg pre-treatment), the neurological deficit score is 1.9±0.2, the overall mortality worked out at 27%, the post-ischemic cerebral perfusion is on record as 40±4% and the “cerebral infarct volume (percentage of the ipsilateral hemisphere)” value came to 12±4%. In data set [10] (setting [13]), the neurological deficit score was found to be 1.6±0.2, the overall mortality came to 24%, the post-ischemic cerebral perfusion stood at 28±2% and the “cerebral infarct volume (percentage of the ipsilateral hemisphere)” value is given as 22±4%.
`O=CC[C@@H](O)[C@H](O)[C@H](O)CO` [D-deoxyglucose, 2-Deoxy-D-glucose, reference compound]: the “calculated BBB permeability-surface area product (PS)” value in data set [2] is on record as 44±3.2 μl/min/gm brain tissue. The “concentration necessary to block the transport of dehydroascorbic acid through GLUT1” value on GLUT1 [11] was “greater than 50 mM”. The Km with HL60 cells is 2500 µM.
In the case of `CC(C)C[C@H](N)C(=O)O` [leucine], the “inhibition of uptake of dehydroascorbic acid in the brain” value at GLUT1 [1] is on record as “no effect”.
On to `OC[C@H]1O[C@@](CO)(O[C@H]2O[C@H](CO)[C@@H](O)[C@H](O)[C@H]2O)[C@@H](O)[C@@H]1O` [sucrose, [fructose-1-^3H]-sucrose], for which the maximum brain accumulation in data set [4] (Balb/c, iv) was found to be 0.4 % ID/gram brain tissue. Moreover, in [4] (Balb/c, iv, 15 min), the brain radioactivity is listed as less than 0.1%. Moreover, the “accumulation, percent of injected dose (TD) per gram of brain tissue” value in [5] is reported as “only trace levels”. In [9], the “radioactivity found in the brain, percent of injected dose (ID) per gram of brain tissue” value is “only trace radioactivity”.
In the case of `O=C1O[C@H]([C@@H](O)CO)C(O)=C1O` [ascorbic acid, L-[1-^14C]-ascorbic acid, reference compound], the steady-state plasma concentration entry in data set [12] is listed as “approximately 24 μM”. Also, in [4] (Balb/c, iv), the maximum brain accumulation was determined as 0.4 % ID/gram brain tissue and the serum radioactivity concentration was 27 % ID/gram serum. The brain radioactivity in data set [4] (Balb/c, iv, 2 hours) is 1.1 % ID/gram brain tissue. The “transport into the brain” value in data set [4] is “no measurable transport”. Further, the “accumulation, percent of injected dose (TD) per gram of brain tissue” value in data set [5] is reported as “only trace levels”. For the same molecule, in data set [6], the infarct volume is reported as 46±6%, the mortality amounted to 64% and the “pre-sacrifice regional cerebral cortical perfusion” value was 15±3%. In [9], the “radioactivity found in the brain, percent of injected dose (ID) per gram of brain tissue” value was “only trace radioactivity”. Moreover, in data set [10] (250 mg/kg pre-treatment), the neurological deficit score is recorded as 2.7±0.7, the overall mortality is listed as 50%, the post-ischemic cerebral perfusion is 13±1% and the “cerebral infarct volume (percentage of the ipsilateral hemisphere)” value is reported as 58±4%.
